According to PubChem BioAssay (NCI):
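Values below derive from 48-hour exposures of cells grown in 96-well plates, with endpoints linearly interpolated between the two concentrations bracketing the appropriate inhibition level. GI50 is the concentration that inhibits growth by half. Definition used: TGI = concentration required for complete inhibition of growth.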

What was measured:
Experiment in all cases: growth of human tumour cells (NCI), 48 h
A549 NSCLC = tested on: A549 NSCLC
CCRF-CEM leukemia = tested on: CCRF-CEM leukemia
KM12 colon = tested on: KM12 colon
SK-OV-3 ovarian = tested on: SK-OV-3 ovarian
SN12C renal = tested on: SN12C renal
SNB-19 CNS = tested on: SNB-19 CNS
COLO 205 colon = tested on: COLO 205 colon
DU-145 prostate = tested on: DU-145 prostate
HS 578T breast = tested on: HS 578T breast
MCF7 breast = tested on: MCF7 breast

Row | Structure (SMILES) | TGI (A549 NSCLC) [µM] | TGI (CCRF-CEM leukemia) [µM] | TGI (KM12 colon) [µM] | TGI (SK-OV-3 ovarian) [µM] | TGI (SN12C renal) [µM] | TGI (SNB-19 CNS) [µM] | TGI (COLO 205 colon) [µM] | GI50 (A549 NSCLC) [µM] | GI50 (DU-145 prostate) [µM] | TGI (DU-145 prostate) [µM] | GI50 (KM12 colon) [µM] | GI50 (SK-OV-3 ovarian) [µM] | GI50 (CCRF-CEM leukemia) [µM] | GI50 (COLO 205 colon) [µM] | GI50 (SNB-19 CNS) [µM] | TGI (HS 578T breast) [µM] | TGI (MCF7 breast) [µM] | GI50 (MCF7 breast) [µM] | GI50 (SN12C renal) [µM] | GI50 (HS 578T breast) [µM]
1 | Cc1ccc(NC(=O)C2C(=O)N(c3ccc(C)c(C)c3)C(=O)/C2=N\NC(N)=S)cc1C (stereo unspecified) | > 100 | > 100 | > 100 | > 100 | > 100 | > 100 |  |  |  |  |  |  |  |  |  |  |  |  |  | 
2 | BrC1=CC=C2NCCCCCCN=C3C=CC(Br)=CC=C3NCCCCCCN=C2C=C1 | > 25.5 | > 25.5 | > 25.5 | > 25.5 | > 25.5 | > 25.5 |  |  |  |  |  |  |  |  |  |  |  |  |  | 
3 | c1cc(-c2cn[nH]c2)cc(-c2cn[nH]c2)c1 | 69.5 | > 100 | > 100 | 37.5 | > 100 | > 100 | > 100 |  |  |  |  |  |  |  |  |  |  |  |  | 
4 | Cc1[nH]nc2c1C(=O)C=C(N(CCO)c1ccccc1)C2=O | > 100 | > 100 | > 100 | > 100 | > 100 | > 100 | > 100 |  |  |  |  |  |  |  |  |  |  |  |  | 
5 | Cc1nc(Nc2ccccc2)sc1C(=O)NNc1ccc([N+](=O)[O-])cc1[N+](=O)[O-] | > 100 | 58.2 | > 100 | > 100 | > 100 | > 100 | > 100 |  |  |  |  |  |  |  |  |  |  |  |  | 
6 | c1ccc2cc(Cn3c[n+](Cc4ccc5ccccc5c4)c4ccccc43)ccc2c1 | 3.88 |  | 3.15 | 3.4 |  |  |  | 1.87 | 1.51 | 2.88 | 1.54 | 1.67 |  |  |  |  |  |  |  | 
7 | O=[N+]([O-])[O-].O=[N+]([O-])[O-].[Au].[Au].c1ccc([P-]c2ccccc2)cc1.c1ccc([P-]c2ccccc2)cc1 | > 100 | > 100 | > 100 | > 100 |  | > 100 | > 100 | 84 |  |  | 46.3 | > 100 | 18.8 | 28 | > 100 |  |  |  |  | 
8 | Cn1c2ccccc2c(=O)c2c([N+](=O)[O-])ccc(NCCN)c21 | 25.5 |  | 19.7 | 29.4 | 17.2 | 27.8 | 19.3 |  |  |  |  |  |  |  |  |  |  |  |  | 
9 | O=[N+]([O-])c1ccc(/C=C(/c2ccc([N+](=O)[O-])o2)S(=O)(=O)c2ccccc2)o1 | 38.2 |  | 32.6 | 90.8 |  | 35.7 | 4.67 |  |  | 28 |  |  |  |  |  | 44.3 | 72.7 |  |  | 
10 | O=C(O)/C(=C\c1ccccc1Cl)S(=O)(=O)c1ccccc1 | > 100 | > 100 | > 100 | > 100 | > 100 | > 100 | > 100 |  |  |  |  |  |  |  |  |  |  |  |  | 
11 | COc1cc2c([C@@H](OC(=O)c3ccccc3)c3ccc4c(c3)OCO4)nccc2c(OC)c1OC | > 100 | > 100 |  | > 100 | > 100 | > 100 | > 100 |  |  |  |  |  |  |  |  |  |  |  |  | 
12 | COC(=O)NC(=O)c1cn(CCCOC(=O)CCCCCCCCC(=O)OCCCn2cc(C(=O)NC(=O)OC)c(=O)[nH]c2=O)c(=O)[nH]c1=O | > 100 | > 100 | > 100 |  | > 100 | 76.5 |  |  |  |  |  |  |  |  |  |  |  |  |  | 
13 | CCCCCCCCCCCC(=O)c1c(O)cccc1O | 33.7 | 62.8 | 30 | 85.8 | 34.7 | 30.4 | 29 |  |  |  |  |  |  |  |  |  |  |  |  | 
14 | Cc1nc2cc(Nc3nc(Nc4ccc(F)cc4)nc(N4CCN(C)CC4)n3)ccc2n1Cc1ccccc1 | 3.15 | 5.47 | 3.25 | 3.78 | 3.34 | 7.42 | 3.62 | 1.51 | 1.75 | 3.37 | 1.73 | 1.9 | 1.93 | 1.94 | 2.47 |  | 3.38 | 1.36 | 1.67 | 
15 | CC1CCP(=O)(c2ccccc2)CC1 (stereo unspecified) | > 100 | > 100 | > 100 | > 100 | > 100 | > 100 | > 100 |  |  |  |  |  |  |  |  |  |  |  |  | 
16 | Cc1cccc2c1O/C(=C\c1ccc([N+](=O)[O-])o1)C2=O | 7.81 | 1.05 | 2.99 | 8.28 | 4.25 | > 33 | 2.14 | 2.56 | 0.659 | 2.12 | 1.38 | 2.57 | 0.285 | 0.66 | 2.7 | > 25 |  |  | 1.57 | 2.25

Row | Structure (SMILES) | TGI (A549 NSCLC) [µM] | TGI (CCRF-CEM leukemia) [µM] | TGI (KM12 colon) [µM] | TGI (SK-OV-3 ovarian) [µM] | TGI (SN12C renal) [µM] | TGI (SNB-19 CNS) [µM] | TGI (COLO 205 colon) [µM] | GI50 (A549 NSCLC) [µM] | GI50 (DU-145 prostate) [µM] | TGI (DU-145 prostate) [µM] | GI50 (KM12 colon) [µM] | GI50 (SK-OV-3 ovarian) [µM] | GI50 (CCRF-CEM leukemia) [µM] | GI50 (COLO 205 colon) [µM] | GI50 (SNB-19 CNS) [µM] | TGI (HS 578T breast) [µM] | TGI (MCF7 breast) [µM] | GI50 (MCF7 breast) [µM] | GI50 (SN12C renal) [µM] | GI50 (HS 578T breast) [µM]
17 | CC1(C)CC(=O)C(=[N+]=[N-])C(=O)C1 | > 100 | > 100 | > 100 | > 100 | > 100 | > 100 | > 100 |  |  |  |  |  |  |  |  |  |  |  |  | 
18 | Cc1cccc(C)c1NC(=O)CCC(=O)NC(N)=S | > 100 | > 100 | > 100 | > 100 | > 100 | > 100 | > 100 |  |  |  |  |  |  |  |  |  |  |  |  | 
19 | COC1C(O)C(C)OC(OC2CC3CCC4C(CCC5(C)C(C6=CC(=O)OC6)CCC45O)C3(O)C(OC(C)=O)C2)C1O (stereo unspecified) | 1.41 | > 100 | > 48.8 | 6.82 | 2.6 | 14.9 | 8.48 |  |  | 1.65 |  |  |  |  |  | > 100 |  |  |  | 
20 | COC(=O)C1N=CSCC1(C)O (stereo unspecified) | > 100 | > 100 | > 100 | > 100 | > 100 | > 100 | > 100 |  |  |  |  |  |  |  |  |  |  |  |  | 
21 | CC(=O)[C-](C(C)=O)c1ccccc1.CC(=O)[C-](C(C)=O)c1ccccc1.CC[O-].CC[O-].[Ti+4] | > 100 |  | > 100 | > 100 | > 100 | > 100 | > 100 | > 100 |  |  | > 100 | > 100 |  | > 100 | > 100 |  |  |  | > 100 | 
22 | c1cc[c]([Sn]([S]c2cccc3cccnc23)([S]c2cccc3cccnc23)[c]2ccccc2)cc1 | 1.38 | 0.429 | 0.616 | 2.07 | 0.954 | 1.66 | 0.298 | 0.363 |  |  | 0.23 | 0.588 | 0.0948 | 0.136 | 0.438 |  |  |  | 0.284 | 
23 | COc1ccc(C(=O)C(C(=O)C(=O)Nc2nccs2)c2ccc(OC)cc2)cc1 (stereo unspecified) | > 100 | > 100 | > 100 | > 100 | > 100 | > 100 | > 100 |  |  |  |  |  |  |  |  |  |  |  |  | 
24 | COc1cc(Cl)c2c3c(c(C(=O)c4ccccc4)oc13)CCC2 | > 100 | > 100 |  | > 100 | > 100 | > 100 | > 100 |  |  |  |  |  |  |  |  |  |  |  |  | 
25 | CCc1cccc(C(C)CC)c1NC(=O)C(=O)C(CC(=O)Nc1ccc(Cl)c(Cl)c1)C(=O)OC (stereo unspecified) | > 100 | > 100 | > 100 | > 100 | > 100 | > 100 | > 100 |  |  |  |  |  |  |  |  |  |  |  |  | 
26 | Cc1cc(N(CCC#N)CCC#N)ccc1N=Nc1cccc(Cl)c1 | > 100 | > 100 | > 100 | > 100 | > 100 | > 100 | > 100 |  |  |  |  |  |  |  |  |  |  |  |  | 
27 | CCCCN(CCCC)C(=O)C(=O)C(C)C(=O)CC (stereo unspecified) | > 100 |  | > 100 | > 100 | > 100 | > 100 | > 100 |  |  |  |  |  |  |  |  |  |  |  |  | 
28 | N[C@@H]1CCCC[C@@H]1N.O=C([O-])CN(CP(=O)([O-])[O-])CP(=O)([O-])[O-].[Pt+2] | > 100 | 93.4 | > 100 | > 100 | > 100 | > 100 | > 100 | > 100 |  |  | > 100 | > 100 | 29 | 50.1 | > 100 |  |  |  | > 100 | 
29 | CO[C@@]12C[C@H]3[C@@H]([C@@H](O)[C@@H](OC(=O)/C=C/c4ccccc4)[C@@]4(O)C(C)(C)CCC[C@]34C)[C@@H](C)C1=CC(=O)O2 | 18.4 |  | 28.6 |  | 19.5 | > 100 | 54.2 | 3.64 | 13.4 | 78.8 | 6.74 |  |  | 5.42 | 16.1 | 29.3 | > 100 | 8.68 | 4.84 | 7.8
30 | Cc1ccc(C2C3=C(N=c4s/c(=C/c5ccc(Br)cc5)c(=O)n42)c2ccc4ccccc4c2OCC3)cc1 (stereo unspecified) | > 100 | > 100 | > 100 | > 100 |  | > 100 | > 100 | > 100 | > 100 | > 100 | > 100 | > 100 | > 100 | > 100 | > 100 | > 100 | > 100 | > 100 |  | > 100
31 | N#CC(C(=N/NC(N)=S)/C(=N/NC(N)=S)C(C#N)c1ccc(Cl)cc1)c1ccc(Cl)cc1 (stereo unspecified) | > 100 | 97.9 | > 100 | > 100 | > 100 | > 100 | > 100 |  |  |  |  |  |  |  |  |  |  |  |  | 
32 | NC(=S)N/N=C\c1nccc2c(N)cccc12 | > 27 |  | > 100 | > 100 | > 39.5 | > 100 | > 100 | 0.484 | 0.278 | 2.38 | 0.38 | 0.541 |  | 1.09 | 0.557 | > 100 |  | 0.218 | 0.314 | 1.68
